Measurements published in the NIST ThermoML archive (doi:10.1021/je100594u).
“And” between values parts separate entries of the source, which are not always exact repeats. Identical values can stand only once. ± gives the expanded uncertainty stated by the source.

Legend:
[1] = refractive index (Na D-line) (dimensionless); details: 298.15 K; 101.33 kPa; Liquid
[2] = 298.15 K, 101.3 kPa, Liquid; for viscosity: Capillary tube (Ostwald / Ubbelohde) method; for speed of sound: Linear variable-path acoustic interferometer; for mass density: Pycnometric method
[3] = xn = mol fraction of the nth substance listed; details: 298.15 K, 101.3 kPa, Liquid; for viscosity: Capillary tube (Ostwald / Ubbelohde) method; for speed of sound: Linear variable-path acoustic interferometer; for mass density: Pycnometric method
[4] = refractive index (Na D-line) (dimensionless); xn = mol fraction of the nth substance listed; details: 298.15 K, 101.3 kPa, Liquid

C1COCO1 [1,3-dioxolane]
Details | mass density [kg/m3] | refractive index | speed of sound | viscosity [mPa·s]
[1] | – | 1.3985 ± 0.0013 | – | –
[2] | 1058.7 ± 0.7 | – | 1339.4 ± 1.7 m/s and 1339.5 ± 1.7 m/s | 0.5894 ± 0.0049

C1COCO1 [1,3-dioxolane] + CCCCCO
Details | mass density, [3] [kg/m3] | refractive index, [4] | speed of sound, [3] [m/s] | viscosity, [3] [mPa·s]
x1 = 0.1168 | 832.9 ± 0.7 | 1.4085 ± 0.0013 | 1278.8 ± 1.7 | 2.505 ± 0.019
x1 = 0.2293 | 854.5 ± 0.7 | 1.4072 ± 0.0013 | 1287.5 ± 1.7 | 1.885 ± 0.015
x1 = 0.3377 | 876.6 ± 0.7 | 1.406 ± 0.0013 | 1296.8 ± 1.7 | 1.44 ± 0.011
x1 = 0.4424 | 899.2 ± 0.7 | 1.405 ± 0.0013 | 1305 ± 1.7 | 1.063 ± 0.0085
x1 = 0.5434 | 922.5 ± 0.7 | 1.404 ± 0.0013 | 1313.4 ± 1.7 | 0.9063 ± 0.0073
x1 = 0.6409 | 946.8 ± 0.7 | 1.403 ± 0.0013 | 1321.5 ± 1.7 | 0.756 ± 0.0062
x1 = 0.7352 | 972.5 ± 0.7 | 1.4022 ± 0.0013 | 1327.1 ± 1.7 | 0.6472 ± 0.0054
x1 = 0.8264 | 999.3 ± 0.7 | 1.401 ± 0.0013 | 1332.7 ± 1.7 | 0.5704 ± 0.0048
x1 = 0.9146 | 1028.2 ± 0.7 | 1.4 ± 0.0013 | 1337 ± 1.7 | 0.5413 ± 0.0046
x1 = 1 | 1058.7 ± 0.7 | 1.3985 ± 0.0013 | 1339.5 ± 1.7 | 0.5894 ± 0.0049

C1COCO1 [1,3-dioxolane] + CCOCC
x1 = 1
Details | mass density [kg/m3] | refractive index | speed of sound [m/s] | viscosity [mPa·s]
[3] | 1058.7 ± 0.7 | – | 1339.4 ± 1.7 | 0.5894 ± 0.0049
[4] | – | 1.3985 ± 0.0013 | – | –

CCOCC [diethyl ether]
Details | mass density [kg/m3] | refractive index | speed of sound [m/s] | viscosity [mPa·s]
[1] | – | 1.3515 ± 0.0013 | – | –
[2] | 708.3 ± 0.6 | – | 982.3 ± 1.5 | 0.2469 ± 0.0024

CCOCC [diethyl ether] + C1COCO1
Details | mass density, [3] [kg/m3] | refractive index, [4] | speed of sound, [3] | viscosity, [3] [mPa·s]
x2 = 0 | 708.3 ± 0.6 | 1.3515 ± 0.0013 | 982.3 ± 1.5 m/s | 0.2469 ± 0.0024
x2 = 0.1 | 736.4 ± 0.7 | 1.3568 ± 0.0013 | 1003.9 ± 1.5 m/s | 0.2656 ± 0.0026
x2 = 0.2 | 765.6 ± 0.7 | 1.3604 ± 0.0013 | 1033.4 ± 1.6 m/s | 0.2844 ± 0.0027
x2 = 0.3001 | 796.3 ± 0.7 | 1.3649 ± 0.0013 | 1067.4 ± 1.6 m/s | 0.3055 ± 0.0029
x2 = 0.4001 | 829 ± 0.7 | 1.3696 ± 0.0013 | 1108.5 ± 1.6 m/s | 0.331 ± 0.0031
x2 = 0.5001 | 863.4 ± 0.7 | 1.3743 ± 0.0013 and 1.375 ± 0.0013 | 1152.8 ± 1.6 m/s and 1149.2 ± 1.6 m/s | 0.3604 ± 0.0033
x2 = 0.6001 | 899.7 ± 0.7 | 1.3791 ± 0.0013 | 1191.4 ± 1.7 m/s | 0.3944 ± 0.0035
x2 = 0.7001 | 938.2 ± 0.7 | 1.3842 ± 0.0013 | 1230.9 ± 1.7 m/s | 0.4345 ± 0.0038
x2 = 0.8 | 977 ± 0.7 | 1.3893 ± 0.0013 | 1265.3 ± 1.7 m/s | 0.4784 ± 0.0041
x2 = 0.9 | 1018.4 ± 0.8 | 1.3956 ± 0.0013 | 1302.4 ± 1.7 m/s | 0.5305 ± 0.0045

CCOCC [diethyl ether] + CCCCCO
Details | mass density, [3] [kg/m3] | refractive index, [4] | speed of sound, [3] [m/s] | viscosity, [3] [mPa·s]
x1 = 0.1167 | 805.2 ± 0.7 | 1.4043 ± 0.0013 | 1241.8 ± 1.7 | 2.651 ± 0.02
x1 = 0.2292 | 797.5 ± 0.7 | 1.3977 ± 0.0013 | 1216.7 ± 1.7 | 1.966 ± 0.015
x1 = 0.3377 | 788.9 ± 0.7 | 1.3922 ± 0.0013 | 1193.9 ± 1.7 | 1.491 ± 0.012
x1 = 0.4423 | 779.7 ± 0.7 | 1.3874 ± 0.0013 | 1172.2 ± 1.6 | 1.123 ± 0.0089
x1 = 0.5433 | 770.4 ± 0.7 | 1.3825 ± 0.0013 | 1141.6 ± 1.6 | 0.8294 ± 0.0068
x1 = 0.6409 | 759.5 ± 0.7 | 1.3774 ± 0.0013 | 1110.7 ± 1.6 | 0.6199 ± 0.0052
x1 = 0.7352 | 747.9 ± 0.7 | 1.3724 ± 0.0013 | 1077.3 ± 1.6 | 0.4811 ± 0.0042
x1 = 0.8263 | 736.1 ± 0.7 | 1.3664 ± 0.0013 | 1046.3 ± 1.6 | 0.382 ± 0.0034
x1 = 0.9146 | 723 ± 0.7 | 1.3601 ± 0.0013 | 1011.2 ± 1.6 | 0.3141 ± 0.0029
x1 = 1 | 708.3 ± 0.6 | 1.3515 ± 0.0013 | 982.3 ± 1.5 | 0.2469 ± 0.0024

CCCCCO [pentan-1-ol]
Details | mass density [kg/m3] | refractive index | speed of sound [m/s] | viscosity
[1] | – | 1.41 ± 0.0013 | – | –
[2] | 811.2 ± 0.7 | – | 1271.6 ± 1.7 | 3.504 ± 0.026 mPa·s and 3.404 ± 0.025 mPa·s

CCCCCO [pentan-1-ol] + C1COCO1
x2 = 0
Details | mass density [kg/m3] | refractive index | speed of sound [m/s] | viscosity [mPa·s]
[3] | 811.2 ± 0.7 | – | 1271.6 ± 1.7 | 3.504 ± 0.026
[4] | – | 1.41 ± 0.0013 | – | –

CCCCCO [pentan-1-ol] + CCOCC
x2 = 0
Details | mass density [kg/m3] | refractive index | speed of sound [m/s] | viscosity [mPa·s]
[3] | 811.2 ± 0.7 | – | 1271.6 ± 1.7 | 3.504 ± 0.026
[4] | – | 1.41 ± 0.0013 | – | –
